The values that follow come from patent publication US20050026810A1, “Treatment of male sexual dysfunction” (Pfizer Inc., priority 2003, published 2005).

Series [1] deals with copulatory behaviour in conscious rats. Briefly: Copulatory behaviour in conscious rats (ejaculatory latency). As to conditions: 0.05 mgkg^-1 sc. In kind it is in vivo, rat. As to the method:
For all the sexual behavour tests, the male rats were placed in an observation arena (50-60 cm diameter), starting 5 hours into the dark cycle and observed under red ilumination. Three to four minutes after placing the male in the arena, a receptive female (ovariectomised, oestradiol benzoate/progesterone injection 48 hour before behavioural study) was introduced into the arena and the following parameters noted: • i) ejaculatory latency (EJL; time taken from addition of receptive female into the arena to ejaculation); • ii) copulatory efficiency (CE; ejaculatory latency/the number of ihtromissions to ejaculation, i.e. the number of seconds between intromissions); • iii) intromission frequency (IF; the number of intromissions to ejaculation); • iv) mount frequency (MF; the number of mounts to ejaculation); • v) post ejaculatory interval (PEI; the time taken from ejaculation to the commencement of copulatory behaviour).
Rodent copulatory behaviour is characterised by a series of mounts, with and without vaginal insertion (50-80% of mounts result in intromission [vaginal penetration]) and ejaculation occurs after 6 to 12 intromissions. Each intromission lasts a matter of seconds—it is not possible to quantify intromission length i.e. intravaginal latency. The effect of L-371257 was assessed on a number of copulatory parameters (see above). We have focused ejaculatory latency as a clinical biomarker of time taken to achieve ejaculation.

The nature of series [2]: Plasma concentration in the copulatory behaviour study. In kind it is in vivo, rat. As to conditions: 0.05 mgkg^-1 sc, rats.
Series [3] deals with vasopressin V1a receptors (Rattus norvegicus, UniProt P30560). As to conditions: cited from earlier work.
Series [4] addresses oxytocin receptors. As to conditions: read-out: OT; cited from earlier work.
Series [5] relates to PCA-induced ejaculation in anaesthetised rats. Briefly: p-chloroamphetamine (PCA)-induced ejaculation and penile erection in anaesthetised rats. In kind it is in vivo, rat. As to the method:
In order to study penile; erection and ejaculation the method used was based on the methodology taught in Yonezawa et al. (2000) Life Sciences 67, 3031-3039. For ease of reference, this methodology is described below:
Male Sprague Dawley rats, weighing 350-450 g, are used. Prior to the experiments the animals are housed in groups (2 rats per cage) under controlled 12 h light-dark cycle (lights on at 07:00), constant temperature (23±1° C.) and humidity (55±5%). They have free access to standard food pellets and water.
Rats are anesthestised with sodium pentobarbitone (50 mg/kg, i.p.) and are placed in the supine position. The penis is extruded from its sheath and gently held by a wooden applicator positioned at the base of the penis. The test compounds are administered by intravenous infusion and p-chloroamphetamine (PCA) (5-10 mg/kg) is administered i.p. immediately before the sheath retraction and the penile responses, including penile erection, redding and expansion of the penile body, glans erection, engorgement and slight flaring of the glans and cup, glans erection with intense flaring of the glans, are recorded. Latencies from PCA administration to the initial penile response and ejaculation is also measured in seconds.
The effect of a test compound on p-chloroamphetamine (PCA) induced ejaculation is also assessed by weighing the ejaculates accumulated over 30 mins. A suitable method using conscious rats is described in Renyi (1985) Neuropharmacology, Vol. 24. No. 8, pp 697-704.

Several values for one entry are separate records, joined by “and”; a condition that tells them apart may be missing. Identical values can stand only once.

Chain of vasopressin V1a receptors (P30560 whole entry): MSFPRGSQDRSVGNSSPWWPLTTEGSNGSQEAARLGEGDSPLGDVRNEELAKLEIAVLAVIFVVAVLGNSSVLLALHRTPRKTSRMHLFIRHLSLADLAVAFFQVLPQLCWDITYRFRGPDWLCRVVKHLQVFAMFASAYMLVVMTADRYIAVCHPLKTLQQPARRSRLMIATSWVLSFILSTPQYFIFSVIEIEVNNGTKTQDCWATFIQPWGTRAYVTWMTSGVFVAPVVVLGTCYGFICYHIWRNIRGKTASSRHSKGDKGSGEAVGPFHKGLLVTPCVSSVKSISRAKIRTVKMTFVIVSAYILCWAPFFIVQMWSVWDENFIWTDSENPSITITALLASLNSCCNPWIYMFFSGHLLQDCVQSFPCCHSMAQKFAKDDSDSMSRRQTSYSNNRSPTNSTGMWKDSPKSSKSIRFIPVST

Regarding `COc1cc(OC2CCN(C(C)=O)CC2)ccc1C(=O)N1CCC(N2C(=O)OCc3ccccc32)CC1` [L-371,257], the “other effects on copulatory behaviour” value in series [1] is recorded as “no other significant effects”. The “increase of ejaculatory latency” value in series [1] (P<0.05 vs vehicle) is 67%. The Ejaculatory latency in series [1] (plasma conc ~30 nM, mean ± sem, n = 8) was 266 s and 266.4 ± 30.9 s. For the same molecule, the Plasma conc in series [2] was ~30 nM. The results for the Ki in series [3] and in series [4] were 3.7 nM and 19 nM, respectively.
On to `COC1CCN(Cc2nnc(C3CCN(c4ccccn4)CC3)n2Cc2ccccc2)CC1` [Compound 1, 4-[4-Benzyl-5-(4-methoxy-piperidin-1-ylmethyl)-4H-[1,2,4]triazol-3-yl]-3,4,5,6-tetrahydro-2H-[1,2′]bipyridinyl], for which the “time taken for the rats to achieve erection” value in series [5] (anaesthetised rats, PCA) was “not significantly affected”. Further, in series [5] (free plasma concentration 30.9 nM, intravenous infusion, anaesthetised rats), the “Ejaculation delayed (near maximal effect)” value came to 100%. The “ejaculation and penile erection, in words” value in series [5] (plasma conc 11.4 nM and 30.9 nM) was “* At both of these concentrations Compound 1 delayed ejaculation without affecting penile erection”. The “effect on PCA-induced ejaculation” value in series [5] (plasma concentration of 9-31 nM, anaesthetised rats) is “significantly delayed”.
